In patent US20140179664A1, “Heterocyclyl Pyrimidine Analogues As JAK Inhibitors” (Cellzome Limited, priority 2011, published 2014) one finds IC50 data, which are given here for 48 compounds.

Structures are written as SMILES. pIC50: −log10 of the molar value. Where only a bound is given, the exact number is not on record here.

One assay has as its target T1, TYK2 (Homo sapiens, UniProt P29597).
T1 construct: endogenous in cells; host or cells: Molt4 (ATCC CRL-1582) and Ramos (ATCC CRL-1596), mixed lysate 1:2
In words: Kinobeads assay, TYK2. Type of assay: binding. To be noted: mixed Molt4/Ramos lysate, read-out: Inhibition values (IC50) TYK2. The gist of the method: (§1)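 IC50s come from capture competition: compound at various concentrations versus an immobilized aminopyrido-pyrimidine ligand for kinases in 1:2 Molt4/Ramos lysate (10 mg/mL), 3 h in a cold room. Captured JAK-family kinases were measured by specific-antibody dot blot with Odyssey infrared detection.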

The target in another assay is T2, JAK3 (Homo sapiens, UniProt P52333).
T2 construct: endogenous in cells; host or cells: Molt4 (ATCC CRL-1582) and Ramos (ATCC CRL-1596), mixed lysate 1:2
T2 sequence (P52333 1-1124): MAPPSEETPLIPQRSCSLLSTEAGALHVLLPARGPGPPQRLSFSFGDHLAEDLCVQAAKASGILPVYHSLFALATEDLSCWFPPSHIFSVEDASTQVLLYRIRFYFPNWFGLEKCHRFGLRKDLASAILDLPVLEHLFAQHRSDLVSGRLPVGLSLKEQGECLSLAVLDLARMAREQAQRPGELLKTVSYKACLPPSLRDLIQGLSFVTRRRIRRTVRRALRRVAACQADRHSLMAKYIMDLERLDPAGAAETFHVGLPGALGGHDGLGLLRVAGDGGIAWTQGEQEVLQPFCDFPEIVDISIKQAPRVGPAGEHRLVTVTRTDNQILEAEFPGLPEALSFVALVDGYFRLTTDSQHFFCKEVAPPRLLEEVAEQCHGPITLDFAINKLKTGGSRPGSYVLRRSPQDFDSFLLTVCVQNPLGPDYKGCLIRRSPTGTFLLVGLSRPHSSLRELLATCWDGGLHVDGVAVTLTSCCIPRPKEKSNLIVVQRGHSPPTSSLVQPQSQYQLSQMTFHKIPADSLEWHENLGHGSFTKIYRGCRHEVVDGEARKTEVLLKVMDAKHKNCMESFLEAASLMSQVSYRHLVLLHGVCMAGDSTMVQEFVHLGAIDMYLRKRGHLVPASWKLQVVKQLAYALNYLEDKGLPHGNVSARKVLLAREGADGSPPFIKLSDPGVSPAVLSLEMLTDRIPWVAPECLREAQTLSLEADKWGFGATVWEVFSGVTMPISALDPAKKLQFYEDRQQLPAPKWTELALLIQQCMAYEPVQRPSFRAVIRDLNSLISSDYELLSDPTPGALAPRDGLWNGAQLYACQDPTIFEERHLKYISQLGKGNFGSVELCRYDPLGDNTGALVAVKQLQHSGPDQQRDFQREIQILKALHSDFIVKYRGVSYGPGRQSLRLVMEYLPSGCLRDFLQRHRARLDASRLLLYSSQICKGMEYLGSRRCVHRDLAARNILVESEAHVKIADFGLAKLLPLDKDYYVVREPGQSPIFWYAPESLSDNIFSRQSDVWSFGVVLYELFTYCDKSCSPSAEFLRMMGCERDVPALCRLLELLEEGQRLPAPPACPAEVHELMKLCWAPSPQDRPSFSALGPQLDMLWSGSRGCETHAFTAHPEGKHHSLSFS
In words: Kinobeads assay, JAK3. In kind it is binding. The note with it: mixed Molt4/Ramos lysate, read-out: Inhibition values (IC50) JAK3. The gist of the method:
as §1

T1 sequence (P29597 whole entry): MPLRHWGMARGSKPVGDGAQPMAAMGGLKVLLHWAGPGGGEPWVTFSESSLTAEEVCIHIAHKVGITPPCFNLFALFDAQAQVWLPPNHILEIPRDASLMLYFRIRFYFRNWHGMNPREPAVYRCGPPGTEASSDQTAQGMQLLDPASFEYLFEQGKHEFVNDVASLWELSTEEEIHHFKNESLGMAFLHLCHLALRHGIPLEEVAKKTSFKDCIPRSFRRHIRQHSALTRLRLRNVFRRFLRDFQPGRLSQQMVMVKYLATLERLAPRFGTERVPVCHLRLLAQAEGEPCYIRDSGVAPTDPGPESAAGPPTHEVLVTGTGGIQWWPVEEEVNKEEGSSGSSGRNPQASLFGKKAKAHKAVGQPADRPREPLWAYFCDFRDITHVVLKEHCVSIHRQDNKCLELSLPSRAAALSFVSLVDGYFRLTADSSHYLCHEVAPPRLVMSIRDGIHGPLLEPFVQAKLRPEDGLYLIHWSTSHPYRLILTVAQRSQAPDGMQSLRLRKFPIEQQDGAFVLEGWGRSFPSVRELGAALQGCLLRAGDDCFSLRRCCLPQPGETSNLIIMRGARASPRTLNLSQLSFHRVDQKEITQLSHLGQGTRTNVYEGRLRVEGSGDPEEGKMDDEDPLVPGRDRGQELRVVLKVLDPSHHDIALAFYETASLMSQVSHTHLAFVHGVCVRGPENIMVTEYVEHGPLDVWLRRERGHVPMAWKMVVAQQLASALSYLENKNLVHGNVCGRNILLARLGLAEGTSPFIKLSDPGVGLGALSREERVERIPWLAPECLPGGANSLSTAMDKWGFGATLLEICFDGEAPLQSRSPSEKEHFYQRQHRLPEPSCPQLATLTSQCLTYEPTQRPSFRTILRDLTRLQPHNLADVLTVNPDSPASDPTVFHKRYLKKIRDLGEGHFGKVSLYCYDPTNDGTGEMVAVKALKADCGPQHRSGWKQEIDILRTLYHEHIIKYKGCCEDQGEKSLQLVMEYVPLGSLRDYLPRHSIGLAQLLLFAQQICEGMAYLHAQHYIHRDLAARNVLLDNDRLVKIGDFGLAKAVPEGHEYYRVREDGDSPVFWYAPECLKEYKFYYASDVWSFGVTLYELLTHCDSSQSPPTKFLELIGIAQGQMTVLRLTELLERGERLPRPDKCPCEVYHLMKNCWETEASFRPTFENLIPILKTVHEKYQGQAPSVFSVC

The pIC50 is the negative decadic logarithm of the IC50, by convention in mol/L. With `Cn1cc(Nc2ncc(Cl)c(NC(CO)c3cccc(F)c3)n2)cn1` (stereo not drawn) [Compound 40], the pIC50 on TYK2 was 5.00 to 6.00; on JAK3, more than 7.00.

`OCCn1ccc(Nc2ncc(Cl)c(NC(CO)c3cccc(F)c3)n2)n1` (stereo not drawn) [Compound 41]: the pIC50 on TYK2 is not above 5.00; at JAK3, 6.00 to 7.00.

As for `CC(O)Cn1cc(Nc2ncc(Cl)c(NC(CO)c3c(F)cccc3F)n2)cn1` (stereo not drawn) [Compound 42], the pIC50 was 6.00 to 7.00 on TYK2 and more than 7.00 at JAK3.

Consider `OCCn1cc(Nc2ncc(Cl)c(NC(CO)c3c(F)cccc3F)n2)cn1` (stereo not drawn) [Compound 43], for which the pIC50 on TYK2 was 6.00 to 7.00; at JAK3, more than 7.00.

Turning to `Cn1cc(Nc2ncc(Cl)c(NC(CO)c3c(F)cccc3F)n2)cn1` (stereo not drawn) [Compound 44], the pIC50 was 5.00 to 6.00 on TYK2 and more than 7.00 at JAK3.

Regarding `OCCn1ccc(Nc2ncc(Cl)c(NC(CO)c3c(F)cccc3F)n2)n1` (stereo not drawn) [Compound 45], the pIC50 on TYK2 was 5.00 to 6.00; at JAK3, 6.00 to 7.00.

Turning to `Cn1cc(Nc2ncc(Cl)c(N[C@H](C(=O)NCCO)c3ccccc3)n2)cn1` [Compound 46], the values for the pIC50 at TYK2 and on JAK3 were 5.00 to 6.00 and more than 7.00, respectively.

`O=C(NCCO)[C@@H](Nc1nc(Nc2cnn(CCO)c2)ncc1Cl)c1ccccc1` [Compound 47]: the pIC50 on TYK2 was 5.00 to 6.00; on JAK3, more than 7.00.

Regarding `COCCNC(=O)[C@@H](Nc1nc(Nc2cnn(CCO)c2)ncc1Cl)c1ccccc1` [Compound 48], the pIC50 on TYK2 was 5.00 to 6.00; on JAK3 it was more than 7.00.

Consider `Cn1cc(Nc2ncc(Cl)c(N[C@H](C(=O)N3CCCCC3)c3ccccc3)n2)cn1` [Compound 49], for which the pIC50 on TYK2 is not above 5.00; at JAK3, 6.00 to 7.00.

On to `OCCn1ccc(Nc2ncc(Cl)c(NC(CO)c3ccccc3F)n2)n1` (stereo not drawn) [Compound 50], for which the pIC50 is not above 5.00 at TYK2 and 6.00 to 7.00 at JAK3.

Regarding `O=C([C@@H](Nc1nc(Nc2cnn(CCO)c2)ncc1Cl)c1ccccc1)N1CCCCC1` [Compound 51], the pIC50 on TYK2 is not above 5.00; at JAK3 it was 6.00 to 7.00.

For `Cn1cc(Nc2ncc(Cl)c(NC(CO)c3cccc(Br)c3)n2)cn1` (stereo not drawn) [Compound 52], the pIC50 is 5.00 to 6.00 on TYK2 and 6.00 to 7.00 at JAK3.

With `Cn1cc(Nc2ncc(Cl)c(NC(CO)c3cccc(N4CC5(COC5)C4)c3)n2)cn1` (stereo not drawn) [Compound 53], the figures for the pIC50 on TYK2 and on JAK3 were not above 5.00 and 6.00 to 7.00, respectively.

For the compound `Cn1cc(Nc2ncc(Cl)c(N[C@@H](CO)c3ccccc3)n2)cn1` [Compound 54], the pIC50 at TYK2 and on JAK3 was 5.00 to 6.00 throughout.

For the compound `COC[C@@H](Nc1nc(Nc2cnn(C)c2)ncc1Cl)c1ccccc1` [Compound 55], the figures for the pIC50 at TYK2 and on JAK3 were not above 5.00 and 6.00 to 7.00, respectively.

In the case of `NC(=O)Cn1cc(Nc2ncc(Cl)c(N[C@H](CO)c3ccccc3)n2)cn1` [Compound 56], the pIC50 on TYK2 is 6.00 to 7.00; at JAK3, more than 7.00.

Take `CC(C)(O)Cn1cc(Nc2ncc(Cl)c(NC(CO)c3ccccc3F)n2)cn1` (stereo not drawn) [Compound 57]: the results for the pIC50 on TYK2 and at JAK3 were 5.00 to 6.00 and more than 7.00, respectively.

In the case of `Cn1cc(Nc2ncc(Cl)c(N[C@H](CO)c3ccccc3F)n2)cn1` [Compound 58], the pIC50 on TYK2 was 5.00 to 6.00; on JAK3 it was more than 7.00.

Take `Cn1cc(Nc2ncc(Cl)c(N[C@H](C(=O)NC3CCCC3)c3ccccc3)n2)cn1` [Compound 59]: the pIC50 on TYK2 is not above 5.00; on JAK3, 6.00 to 7.00.

Take `O=C(NC1CCCC1)[C@@H](Nc1nc(Nc2cnn(CCO)c2)ncc1Cl)c1ccccc1` [Compound 60]: the pIC50 is 5.00 to 6.00 on TYK2 and 6.00 to 7.00 at JAK3.

Turning to `CC(C)(O)Cn1cc(Nc2ncc(Cl)c(NC(CO)c3cccc(F)c3)n2)cn1` (stereo not drawn) [Compound 61], the pIC50 on TYK2 was 5.00 to 6.00; at JAK3, more than 7.00.

For `CC(C)(O)Cn1cc(Nc2ncc(Cl)c(NC(CO)c3c(F)cccc3F)n2)cn1` (stereo not drawn) [Compound 62], the pIC50 at TYK2 is 5.00 to 6.00; on JAK3 it was more than 7.00.

`OCCn1cc(Nc2ncc(Cl)c(N[C@@H](CO)c3ccccc3)n2)cn1` [Compound 63]: the pIC50 at TYK2 and on JAK3 was 5.00 to 6.00 each time.

Consider `OCCCn1cc(Nc2ncc(Cl)c(NC(CO)c3ccccc3F)n2)cn1` (stereo not drawn) [Compound 64], for which the pIC50 at TYK2 was 5.00 to 6.00; on JAK3, more than 7.00.

Consider `OCC[C@@H](Nc1nc(Nc2cnn(CCO)c2)ncc1Cl)c1ccccc1` [Compound 65], for which the pIC50 is 5.00 to 6.00 at TYK2 and 6.00 to 7.00 at JAK3.

As for `CNC(=O)Cn1cc(Nc2ncc(Cl)c(N[C@H](CCO)c3ccccc3)n2)cn1` [Compound 66], the pIC50 was 5.00 to 6.00 at TYK2 and 6.00 to 7.00 at JAK3.

In the case of `CC(C)NC(=O)Cn1cc(Nc2ncc(Cl)c(N[C@H](CO)c3ccccc3)n2)cn1` [Compound 67], the pIC50 on TYK2 was 6.00 to 7.00; on JAK3 it was more than 7.00.

Consider `O=C(Cn1cc(Nc2ncc(Cl)c(N[C@H](CO)c3ccccc3)n2)cn1)NC1CC1` [Compound 68], for which the pIC50 is 6.00 to 7.00 on TYK2 and more than 7.00 at JAK3.

Consider `Cn1cc(Nc2ncc(Cl)c(NC(CO)c3cccc(-c4cnn(C)c4)c3)n2)cn1` (stereo not drawn) [Compound 69], for which the pIC50 is not above 5.00 on TYK2 and 6.00 to 7.00 on JAK3.

As to `CN(CC#N)C(=O)Cn1cc(Nc2ncc(Cl)c(N[C@H](CO)c3ccccc3)n2)cn1` [Compound 70], the figures for the pIC50 at TYK2 and on JAK3 were 6.00 to 7.00 and more than 7.00, respectively.

Turning to `Cn1cc(Nc2ncc(Cl)c(NC(CO)c3ccc(F)cc3)n2)cn1` (stereo not drawn) [Compound 71], the results for the pIC50 at TYK2 and at JAK3 were 5.00 to 6.00 and 6.00 to 7.00, respectively.

As to `OCCn1cc(Nc2ncc(Cl)c(NC(CO)c3ccc(F)cc3)n2)cn1` (stereo not drawn) [Compound 72], the values for the pIC50 on TYK2 and on JAK3 were 5.00 to 6.00 and 6.00 to 7.00, respectively.

Turning to `CC(C)(C(N)=O)n1cc(Nc2ncc(Cl)c(N[C@H](CO)c3ccccc3F)n2)cn1` [Compound 73], the negative-log IC50 (pIC50) at TYK2 is 5.00 to 6.00; at JAK3 it was more than 7.00.

In the case of `COc1ccccc1[C@@H](CO)Nc1nc(Nc2cnn(C)c2)ncc1Cl` [Compound 74], the pIC50 on TYK2 was 5.00 to 6.00; at JAK3, more than 7.00.

Consider `OC[C@@H](Nc1nc(Nc2cn[nH]c2)ncc1Cl)c1ccccc1` [Compound 75], for which the pIC50 on TYK2 is 5.00 to 6.00; on JAK3, more than 7.00.

Take `COc1ccccc1[C@@H](CO)Nc1nc(Nc2cnn(CCO)c2)ncc1Cl` [Compound 76]: the figures for the pIC50 on TYK2 and on JAK3 were 6.00 to 7.00 and more than 7.00, respectively.

Turning to `OCCn1cc(Nc2ncc(Cl)c(N[C@H](CO)c3ccccc3F)n2)cn1` [Compound 77], the pIC50 at TYK2 was 6.00 to 7.00; at JAK3, more than 7.00.

Consider `NC(=O)Cn1cc(Nc2ncc(Cl)c(N[C@H](CO)c3ccccc3F)n2)cn1` [Compound 78], for which the pIC50 at TYK2 is 6.00 to 7.00; at JAK3, more than 7.00.

In the case of `OC[C@@H](Nc1nc(Nc2cn[nH]c2)ncc1Cl)c1ccccc1F` [Compound 79], the pIC50 at TYK2 is 5.00 to 6.00; on JAK3 it was more than 7.00.

`OCCn1cc(Nc2ncc(Cl)c(N[C@H](CO)c3ccccn3)n2)cn1` [Compound 80]: the pIC50 on TYK2 is 6.00 to 7.00; on JAK3, more than 7.00.

For the compound `NC(=O)Cn1cc(Nc2ncc(Cl)c(N[C@H](CO)c3ccccn3)n2)cn1` [Compound 81], the pIC50 at TYK2 is 6.00 to 7.00; on JAK3 it was more than 7.00.

Consider `COc1cccc([C@@H](CO)Nc2nc(Nc3cnn(C)c3)ncc2Cl)c1` [Compound 82], for which the pIC50 at TYK2 was 5.00 to 6.00; at JAK3 it was more than 7.00.

On to `COc1cccc([C@@H](CO)Nc2nc(Nc3cnn(CCO)c3)ncc2Cl)c1` [Compound 83], for which the figures for the pIC50 at TYK2 and at JAK3 were 5.00 to 6.00 and more than 7.00, respectively.

On to `COc1cccc([C@@H](CO)Nc2nc(Nc3cnn(CC(N)=O)c3)ncc2Cl)c1` [Compound 84], for which the pIC50 at TYK2 was 5.00 to 6.00; on JAK3, more than 7.00.

With `Cc1cnc(Nc2cnn(CC(F)F)c2)nc1N[C@H](CO)c1cc(F)cc(F)c1` [Compound 167], the pIC50 on TYK2 was 5.00 to 6.00; on JAK3, 6.00 to 7.00.

In the case of `Cc1cnc(Nc2cnn(CC(F)F)c2)nc1NC(CO)c1c(F)cccc1F` (stereo not drawn) [Compound 168], the pIC50 is 5.00 to 6.00 at TYK2 and 6.00 to 7.00 at JAK3.

Take `Cc1cnc(Nc2cnn(CC(=O)N3CCOCC3)c2)nc1NC(CO)c1c(F)cccc1F` (stereo not drawn) [Compound 169]: the pIC50 is 6.00 to 7.00 on TYK2 and more than 7.00 at JAK3.
